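Test compounds were applied to cells in 96-well plates for 48 hours at 5 doses. Here, GI50 denotes the concentration required for 50% inhibition of growth.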 Activity calls are given as the source filed them. Cut-off read from the data, not from the text of the source: active = GI50 up to about 1.1 µM and inactive = higher. Some results are limits rather than exact numbers.

Assay in all cases: inhibition of tumour cell growth, NCI panel, 48 h
Assay [1] deals with DLD-1.
Assay [2] has as its system HOP-18.
The test system of assay [3] is M19-MEL.
For assay [4], the system named is RXF 631.
Assay [5] relates to SNB-78.
The test system of assay [6] is DMS-114.
Assay [7] concerns DMS-273.
In assay [8] the test system is KM-20L2.
Assay [9] concerns XF498.

In the case of `COc1ccc2nc(-c3ccccn3)cc(O)c2c1`, the GI50 in assay [1] was 52.6 µM (inactive); in assay [2], 61.7 µM (inactive); in [3], 31.8 µM (inactive); in assay [4], 85.1 µM (inactive); in assay [5], 99.3 µM (inactive).
For `CCCCCCCCCCCCCC(=O)OC(/C=C/C(C)C)C(O)C(O)C(OC)C(=O)NC1CCCCNC1=O` (stereo not drawn), the GI50 in assay [1] was 0.637 µM (active); in [6], 0.615 µM (active); in assay [7], 0.0916 µM (active); in assay [2], 2.23 µM (inactive); in assay [8], 1.46 µM (inactive); in assay [5] it was 2.82 µM (inactive). Also, the GI50 in [9] was 1.78 µM (inactive).
In the case of `CC(C)C/C(CC(=O)CCC(=O)Nc1ccccc1[N+](=O)[O-])=N\NC(=O)c1cc2ccccc2cc1O`, the GI50 in assay [1] was 55.2 µM (inactive); in assay [6] it was 36.1 µM (inactive); in assay [2], 21.8 µM (inactive); in assay [8] it was 32.1 µM (inactive); in [3], 24.2 µM (inactive); in assay [4], 31.2 µM (inactive). For the same compound, in assay [9], the GI50 is 30.7 µM (inactive).
As to `C/C=C(\CCOS(=O)(=O)c1ccc(C)cc1)[Si](C)(C)C`, the GI50 in assay [1], in [6], in assay [7], in assay [2], in [8] and in assay [3] was > 100 µM (inactive) each time. For the same compound, the GI50 in assay [4], in assay [5] and in [9] was > 100 µM (inactive) each time.
Turning to `O=c1c2ccccc2nc(-c2ccccc2)n1NC(=S)Nc1ccc(Cl)cc1`, the GI50 in assay [1] is > 100 µM (inactive); in assay [6], 34.4 µM (inactive); in assay [7], > 100 µM (inactive); in assay [2], > 100 µM (inactive); in assay [3] it was 52.6 µM (inactive).
On to `CCOC(=O)C1C(c2ccc([N+](=O)[O-])cc2)NC(c2ccc([N+](=O)[O-])cc2)C(C(=O)OC)S1(=O)=O` (stereo not drawn), for which the GI50 in assay [1], in [6], in assay [7], in assay [2], in assay [8] and in assay [3] was > 100 µM (inactive) each time. In addition, the GI50 in assay [5] and in [9] was > 100 µM (inactive) in each case.
Consider `COc1ccc(C2CC(c3cc(C)ccc3O)=NC(N)=N2)cc1` (stereo not drawn), for which the GI50 in assay [1], in assay [6], in assay [7], in assay [2], in [8] and in assay [3] was > 100 µM (inactive) each time. Moreover, the GI50 in assay [5] and in assay [9] was > 100 µM (inactive) in each case.
With `COC(=O)c1cc2c(c(C(=O)OC)c1O)C(=O)C=CC2=O`, the GI50 in assay [1] was > 21.5 µM (inactive); in assay [6], > 48.6 µM (inactive); in assay [7], 34.1 µM (inactive); in [2] it was 4.88 µM (inactive); in assay [8], > 41.6 µM (inactive); in assay [3] it was > 43.8 µM (inactive). For the same compound, the GI50 in assay [4] is 34.8 µM (inactive); in [5], > 42.8 µM (inactive); in assay [9] it was > 9.1 µM (inactive).
In the case of `O=C(CSc1nnc(-c2ccc(/N=C\c3ccc(Cl)cc3)cc2)o1)Nc1ccc(Cl)cc1`, the GI50 in [6], in assay [7], in [2], in assay [8], in assay [3] and in [5] was > 100 µM (inactive) in each case. The GI50 in assay [9] was > 100 µM (inactive).
`N#C/C(=C/c1cccnc1)C(=O)c1ccccc1`: the GI50 in [1], in assay [6], in assay [7], in [2], in assay [8] and in [3] was > 100 µM (inactive) throughout. The GI50 in [5] and in assay [9] was > 100 µM (inactive) in each case.
Turning to `CCOC12SC(Nc3ccc(C)cc3)=NN1C(=S)N(C)N=C2C` (stereo not drawn), the GI50 in [1], in assay [6], in assay [7], in assay [2], in [8] and in assay [3] was > 100 µM (inactive) each time.
With `Cc1ccc([S+]([O-])C(C)C(Cl)c2ccccc2)cc1` (stereo not drawn), the GI50 in assay [1] is > 100 µM (inactive); in [6], 28.2 µM (inactive); in assay [7], > 100 µM (inactive); in assay [2], > 100 µM (inactive); in assay [8], > 100 µM (inactive); in [3], 54.3 µM (inactive). For the same compound, in assay [5], the GI50 was > 100 µM (inactive).
Consider `N#Cc1c2ccccc2cn1-c1ccc(F)cc1`, for which the GI50 is 48.8 µM (inactive) in [1]; 16.2 µM (inactive) in assay [6]; > 10 µM (inactive) in assay [7]; 31.9 µM (inactive) in assay [8]; 37.8 µM (inactive) in assay [3]; 42.2 µM (inactive) in [9].
On to `CSc1nc(SC)c2c(C(N)=S)n[nH]c2n1`, for which the GI50 in assay [1] was 37 µM (inactive); in assay [6] it was 30.1 µM (inactive); in assay [7], 30 µM (inactive); in [8] it was 23.1 µM (inactive); in [3] it was 28.2 µM (inactive); in [4], 32 µM (inactive). The GI50 in [5] was 31.8 µM (inactive).
On to `CCOC(=O)/C(=C\c1ccc(N(CCC#N)CCC#N)cc1)NC(=O)c1cc([N+](=O)[O-])ccc1Cl`, for which the GI50 in assay [1], in assay [6], in [7], in assay [2], in assay [8] and in assay [3] was > 100 µM (inactive) throughout. Moreover, the GI50 in [4] and in assay [5] was > 100 µM (inactive) each time.
On to `Cc1cc2c(c3nocc13)C(=O)c1ccccc1C2=O`, for which the GI50 in assay [1], in [6], in assay [7], in [2], in assay [8] and in assay [3] was > 100 µM (inactive) throughout. For the same compound, in assay [4], the GI50 was > 100 µM (inactive).
With `N#CC12CCC1C1CCCCC12N1CCSCC1` (stereo not drawn), the GI50 in assay [1], in [6], in assay [7], in assay [2], in assay [8] and in assay [3] was > 100 µM (inactive) throughout. Moreover, the GI50 in assay [5] and in assay [9] was > 100 µM (inactive) throughout.
In the case of `COc1cc(/C=C/c2ccc(OC)c(OC)c2OC)cc(OC)c1OC`, the GI50 in assay [1] was 18.3 µM (inactive); in assay [6], 18.2 µM (inactive); in [7], 16.4 µM (inactive); in assay [2], 17.5 µM (inactive); in [8], 20.2 µM (inactive); in assay [3], 20.2 µM (inactive). The GI50 in assay [4] is 20 µM (inactive); in assay [5], 17.3 µM (inactive); in [9] it was 25.5 µM (inactive).
As for `[N-]=[N+]=NC1C(Br)C(=O)NC(=O)N1[C@H]1C[C@H](O)[C@@H](CO)O1` (stereo partly drawn), the GI50 in assay [1], in assay [7], in assay [8], in assay [5] and in assay [9] was > 100 µM (inactive) throughout.
Regarding `CC[S+](C)c1ccc(-c2c3nc(c(-c4ccc([S+](C)CC)cc4)c4ccc([nH]4)c(-c4ccc([S+](C)CC)cc4)c4nc(c(-c5ccc([S+](C)CC)cc5)c5ccc2[nH]5)C=C4)C=C3)cc1.[O-][Cl+3]([O-])([O-])[O-].[O-][Cl+3]([O-])([O-])[O-].[O-][Cl+3]([O-])([O-])[O-].[O-][Cl+3]([O-])([O-])[O-]` (stereo not drawn), the GI50 in assay [7] was 34.4 µM (inactive); in assay [8], 14.1 µM (inactive); in [3] it was 40.9 µM (inactive); in assay [5], 56.2 µM (inactive); in [9] it was 0.881 µM (active).
Regarding `COc1ccc2nc3ccccc3c(NCCCCCN(CCCl)CCCl)c2c1`, the GI50 in [6] is 0.073 µM (active); in [7] it was < 0.0365 µM (active); in assay [2], 0.306 µM (active); in assay [8], 0.0647 µM (active); in [3] it was 0.116 µM (active); in assay [5] it was 0.277 µM (active). The GI50 in assay [9] was 0.051 µM (active).

Values taken from ChEMBL document CHEMBL1201862, “PubChem BioAssay data set” (2004).
